Publication PMC10856454, “Discovery of Novel Antitumor Small-Molecule Agent with Dual Action of CDK2/p-RB and MDM2/p53” (Molecules, 2024)

Key:
[1] = tested on: OVCAR3 cells; assay: Colony formation, OVCAR3; assay type: cell-based; settings: 14 days
Procedure: Cells were inoculated in six-well plates at 1000 cells per well, and III-13 was added in a dose-dependent manner after 24 h. Cells were stained with Crystal Violet Staining Solution (Beyotime, Shanghai, China) at 14 days after incubation, and the cell colonies were counted using Image J.

[2] = tested on: p-Rb, p-CDK2, MDM2, p53 in OVCAR3 cells; assay: Western blot of CDK2 pathway, MDM2 and p53 proteins in OVCAR3 cells; assay type: cell-based
Procedure: Total protein from HCT116, OVCAR3 cells and tissues was collected and homogenized in RIPA buffer. The total cellular protein extract was electrophoresed on 12% SDS-polyacrylamide gels and then transferred to a PVDF membrane (Thermo Fisher Scientific, Waltham, MA, USA). Primary antibodies were incubated overnight at 4 °C and secondary antibodies were incubated at room temperature for 1.5 h. Imaging was performed using Image Quant LAS4000 (GE, Boston, MA, USA).

[3] = target: T1, CDK1 (Homo sapiens, UniProt P06493); assay: Kinase antagonist activity assay (TR-FRET), CDK1; assay type: biochemical
T1 construct: purchased Thermo Fisher Scientific
T1 sequence (P06493 whole entry): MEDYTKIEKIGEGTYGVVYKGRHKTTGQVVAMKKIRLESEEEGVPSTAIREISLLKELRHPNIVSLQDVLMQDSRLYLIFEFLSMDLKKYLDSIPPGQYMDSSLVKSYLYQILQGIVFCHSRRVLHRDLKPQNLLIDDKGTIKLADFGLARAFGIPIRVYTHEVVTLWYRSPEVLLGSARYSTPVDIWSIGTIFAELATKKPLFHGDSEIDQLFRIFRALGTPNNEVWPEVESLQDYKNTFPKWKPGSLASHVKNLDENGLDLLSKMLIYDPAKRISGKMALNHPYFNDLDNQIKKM
T1 sequence (P14635 whole entry partner): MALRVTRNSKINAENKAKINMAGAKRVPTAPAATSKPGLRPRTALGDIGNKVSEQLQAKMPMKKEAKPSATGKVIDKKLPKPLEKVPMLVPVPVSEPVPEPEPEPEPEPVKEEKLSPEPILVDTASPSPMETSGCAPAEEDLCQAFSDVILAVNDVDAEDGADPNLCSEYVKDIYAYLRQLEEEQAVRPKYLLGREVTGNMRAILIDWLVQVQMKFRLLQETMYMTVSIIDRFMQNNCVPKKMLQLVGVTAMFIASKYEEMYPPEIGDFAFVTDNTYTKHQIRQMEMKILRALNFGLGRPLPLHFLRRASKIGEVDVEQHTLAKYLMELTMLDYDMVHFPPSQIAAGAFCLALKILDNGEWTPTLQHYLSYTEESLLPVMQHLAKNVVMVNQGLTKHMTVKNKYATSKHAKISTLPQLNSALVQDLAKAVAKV
Procedure: The compounds were solubilized with DMSO (Solarbio Life Sciences, Beijing, China), and 11 concentrations were serially diluted at 3-fold; 100 nL of compound was added to 384-well plates, 5 μL of 2 × enzyme mixture (Thermo Fisher Scientific, Waltham, MA, USA) was added, and 5 μL of buffer was added instead of the complete inhibition control wells. Then, 1000 rpm centrifugation was performed for 30 s followed by a 15 min incubation at 23 °C. Next, 5 μL of 2 × MLight-MBP peptide (PerkinElmer, Waltham, MA, USA) was added to each well, with 1000 rpm centrifugation for 30 s and incubation at 23 °C for 90 min. At the end of the incubation, the reaction was terminated with buffer containing 15 mM EDTA and 2 nM Eu-anti-P-MBP antibody (PerkinElmer, Waltham, MA, USA), centrifuged at 1000 rpm for 1 min, and incubated at 23 °C for 60 min; the plates were read on a Perkin Elmer Envision ([…]).

[4] = tested on: HCT116 transplanted tumor; assay: Tumor xenograft experiment, nude mouse model of HCT116 transplanted tumor; assay type: in vivo, Balb/c nude mice
Procedure: HCT116 cells (1 × 10^6) were implanted into the back of adult male Balb/c nude mice by subcutaneous injection. […] The solvent or drug containing solution was administered daily to the vehicle and dosing groups by intraperitoneal injection (0.2 mL/20 g). Tumor growth was measured every three days during treatment. At the end of the treatment, the mice were killed, and the tumors were removed and weighed.

[5] = 50 mg/kg, intraperitoneal daily, 14 days

- IC50 [3]: 528 nM
- IC90 [3]: 5.64 µM
- weight loss in mice ([4]; 14 days of treatment): did not cause significant weight loss
Structure (SMILES): CC1(C)CCN1C(=O)O[C@@H]1CC[C@H](c2cc(NC(=O)Cc3ccc(N4CCCC4=O)cc3)n[nH]2)C1 [III-13]
- number of colonies [1]: significant reduction
- MDM2 protein expression [2]: inhibited
- p53 expression [2]: significantly elevated
- expression of p-Rb ([2]; OVCAR3 cells): significantly reduced
- p-CDK2 expression ([2]; OVCAR3 cells): no significant effect
- tumor volume reduced by [4, 5]: ~69.81%
- tumor weight reduced by [4, 5]: ~60.16%
- tumor volume ([4]; both 25 and 50 mg/kg, intraperitoneal daily, 14 days): significantly reduced
